Earlier results, collected in patent US20240207338A1, “KETAMINE AND CANNABIS FOR THE TREATMENT OF EMOTIONAL DISORDERS” (Progressive Therapeutics Inc, priority 2021, published 2024).

SMILES | potency for use in anesthesia relative to ketamine (versus ketamine) | potency for use in anesthesia relative to R-(−)-ketamine (versus R-(−)-ketamine)
NC1(c2ccccc2Cl)CCCCC1=O (centres unmarked) [norketamine] | one third the potency | –
CN[C@]1(c2ccccc2Cl)CCCCC1=O [S-(+)-ketamine] | – | twice as potent
